From US7811352B2, “Fertilizer compositions and methods of using” (priority 2005, dated 2010) come the findings set out here.

Molecules are shown by their SMILES.

For data set [1], the system named is total soil bacteria and fungi. Put plainly: Soil microbial population (plate count) after fertilizer application to Kentucky bluegrass turf (Example 8). The note with it: 1.0 lb N/1000 ft^2; 24, 48 and 72 hours after application. On the procedure: In this Example, the effect on various embodiments of the fertilizer composition on soil microbial population (bacterial and fungal) was examined. The Example compared the effect on total microbial populations 24, 48 and 72 hours after application of the fertilizer to a Kentucky bluegrass turf.
The following fertilizer compositions were used: urea, dry lysine (lysine (HCl), LIQUID LYSINE brand aqueous lysine solution (available from Archer-Daniels-Midland Company, Decatur, Ill.), a threonine cell mass, a lysine cell mass, and soy/lysine combination (a granular mixture of dry lysine and soy flour, soy flakes and soybean oil. Analysis of the threonine cell mass is presented in Table 5. The effect of the fertilizer compositions on microbial population were compared with a control plot to which no fertilizer composition was applied. The dry lysine was dissolved in water and applied by spraying on the turf plot. The fertilizer compositions were applied at a rate of 1.0 lb N/1000 ft^2 of Kentucky bluegrass turf Soil samples from the turf were analyzed for total soil bacteria and fungi by standard plate count and dilution series.

Data set [2] deals with Pennlinks creeping bentgrass for greens. Put plainly: Phytotoxic injury rating, greens creeping bentgrass (Example 16). The data set is classed as in vivo. An excerpt: In this Example, the effect of a fertilizer comprising lysine on cool season greens quality turfgrass growth was examined. The effects of lysine (HCl) and LIQUID LYSINE on a common type of golf course greens quality turfgrass (Pennlinks creeping bentgrass for greens, mown at 0.1875 in height of cut) were compared with those of urea, Milorganite and a blended fertilizer (a blend of methylene urea and urea in an approximately 1:1 ratio).
Fifteen fertilizer treatments comprising three concentrations of each fertilizer composition (Milorganite (N—P—K, 6-2-0), urea (N—P—K, 46-0-0), a blended fertilizer, LIQUID LYSINE N—P—K, 10-2-1), and lysine (HCl) (N—P—K, 15-2-1)) were prepared and applied to 3 replications of well established Pennlinks creeping bentgrass mown to 0.1875 in height cut. The urea, lysine (HCl), and LIQUID LYSINE were dissolved/suspended in 1.5 gal water prior to application. Each fertilizer treatment was applied in concentrations of 0.125 lb N/1000 ft^2/week, 0.250 lb N/1000 ft^2/week and 0.750 lb N/1000 ft^2/week. The urea, LIQUID LYSINE and lysine (HCl) were applied as foliar liquids, while Milorganite and blended fertilizer were applied as granular fertilizers. Plot size was 4 ft×8 ft laid out in a replicated complete block design. Plots were mowed at 0.1875 inches height before fertilizer application and mowed five times per week to 0.1875 inch height. Grass clippings were removed from the plots after each mowing. Irrigation (0.15 inch) was applied following application and daily thereafter. Plots were rated for turfgrass quality (scale of 1-9 where 9=dark green turf, 1=dead/brown turf, and 6=minimally acceptable turf) and phytotoxic injury (scale of 0-9 where 9=significant foliar injury and 2=minimally objectionable foliar injury) throughout the study period. Quality was measured prior to application (day 0) and day 37, day 70 and day 95 after application. Injury was measured on day 37, day 70 and day 95 after application. Ai) additional set of turfgrass plots were fertilized with three treatments of a soy concentrate fertilizer with the same application rates and methods. The quality and phytotoxic injury of the soy concentrate fertilizer plots were measured on day 95. All data was subject to statistical analysis and significant means were determined.

Data set [3] has as its system Moonlight Kentucky bluegrass. Put plainly: Blade density rating, Kentucky bluegrass lawn (Example 17). It is filed as in vivo. The conditions noted are these: Day 70. An excerpt:
In this Example, the effect of a fertilizer comprising lysine on cool season lawn variety turfgrass growth was examined. The effects of lysine (HCl) and LIQUID LYSINE on a common variety of law turfgrass (Moonlight Kentucky bluegrass) were compared with those of urea, Milorganite and a blended fertilizer (a blend of methylene urea and urea in an approximately 1:1 ratio).
Fifteen fertilizer treatments comprising three concentrations of each fertilizer composition (Milorganite N—P—K, 6-2-0), urea (N—P—K, 46-0-0), a blended fertilizer, LIQUID LYSINE (N—P—K, 10-2-1), and lysine (HCl) (N—P—K, 15-2-1)) were prepared and applied to 3 replications of newly established “Moonlight” variety Kentucky bluegrass lawn turfgrass. The urea, lysine (HCl), and LIQUID LYSINE were dissolved/suspended in 1.5 gal water prior to application. […], 1.0 lb N/1000 ft^2/year and 3.0 lb N/1000 ft^2/year, The urea, LIQUID LYSINE and lysine (HCl) were applied as foliar liquids, while Milorganite and the blended fertilizer were applied as granular fertilizers. Plot size was 4 ft×8 ft laid out in a replicated complete block design. Plots were mowed at 2.0 inches before fertilizer application and mowed two times per week to 2.0 inch height. Grass clippings were not removed from the plots and no supplemental cultural maintenance or pest management was applied. Irrigation (0.15 inch) was applied following application and thereafter only when necessary to insure survival of the turf. Plots were rated for turfgrass quality (scale of 1-9 where 9=dark green turf, 1=dead/brown turf, and 6=minimally acceptable turf) and phytotoxic injury (scale of 0-9 where 9=significant foliar injury and 2=minimally objectionable foliar injury) throughout the study period. Quality was measured prior to application (day 0) and day 37, day 70 and day 95 after application. Injury was measured on day 37 and day 70 after application. In addition, blade density of the grass was measured on day 70 after application (scale of 1-9, where 9=very dense turf, 1=low density turf). All data was subject to statistical analysis and significant means were determined.

Setting [4] is: Weekly Rate 0.125 lbs N/1000 ft^2, Day 37.
Where [5] appears, read: Weekly Rate 0.125 lbs N/1000 ft^2, Day 70.
[6] abbreviates: Weekly Rate 0.125 lbs N/1000 ft^2, Day 95.
[7] abbreviates: Weekly Rate 0.25 lbs N/1000 ft^2, Day 37.
Where [8] appears, read: Weekly Rate 0.25 lbs N/1000 ft^2, Day 70.
Setting [9] is: Weekly Rate 0.25 lbs N/1000 ft^2, Day 95.
[10] abbreviates: Weekly Rate 0.75 lbs N/1000 ft^2, Day 37.
The mark [11] stands for this setting: Weekly Rate 0.75 lbs N/1000 ft^2, Day 70.
Setting [12] is: Weekly Rate 0.75 lbs N/1000 ft^2, Day 95.
The mark [13] stands for this setting: Weekly Rate 0.5 lbs N/1000 ft^2.
Where [14] appears, read: Weekly Rate 1.0 lbs N/1000 ft^2.
Where [15] appears, read: Weekly Rate 3.0 lbs N/1000 ft^2.

For `Cl.NCCCC[C@H](N)C(=O)O` [Lys (HCl) 15% N, L-lysine monohydrochloride], the “soil microbial populations compared with controls” value in data set [1] is given as “did not significantly differ”. The “Injury Rating - Greens Bentgrass” value in data set [2] (setting [4]) amounted to 1.0b; in data set [2] (setting [5]), 1.0; in data set [2] (setting [6]), 2.3ab; in data set [2] (setting [7]), 1.0b; in data set [2] (setting [8]), 1.0; in data set [2] (setting [9]), 2.7ab. Also, the figures for the “Injury Rating - Greens Bentgrass” value in data set [2] (setting [10]), in data set [2] (setting [11]) and in data set [2] (setting [12]) were 2.0a, 1.3 and 2.3ab, respectively. The “Density Rating - Kentucky Bluegrass” value in data set [3] (setting [13]) is reported as 5.3cde; in data set [3] (setting [14]) it was 6.3abc; in data set [3] (setting [15]) it was 7.0ab.
In the case of `NC(N)=O` [Urea, urea, reference compound], the “soil microbial populations compared with controls” value in data set [1] is “did not significantly differ”. For the same molecule, the “Injury Rating - Greens Bentgrass” value in data set [2] (setting [4]) came to 1.0b; in data set [2] (setting [5]) it was 1.3; in data set [2] (setting [6]), 3.0ab; in data set [2] (setting [7]) it was 1.0b; in data set [2] (setting [8]), 1.0; in data set [2] (setting [9]) it was 2.0ab. For the same molecule, the “Injury Rating - Greens Bentgrass” value in data set [2] (setting [10]) is recorded as 1.0b; in data set [2] (setting [11]), 1.0; in data set [2] (setting [12]), 2.7ab. The “Density Rating - Kentucky Bluegrass” value in data set [3] (setting [13]) is 5.0de; in data set [3] (setting [14]) it was 5.3cde; in data set [3] (setting [15]), 7.0ab.
